PubChem BioAssay AID2060498 (Molecular Pharmacology Branch, DTP, NCI, 2025)
“And” between values parts separate entries of the source, which are not always exact repeats. Identical values can stand only once.

System: 171881-019-R-J1-PDC tumor spheroids, viability
Test: Anticancer human tumor 171881-019-R-J1-PDC patient-derived invasive breast carcinoma cell line growth inhibition [GQUAD]
Details: spheroids with HUVEC and MSC; for viability, T/C: stronger effect = lower value
Source text: DNA G-quadruplex Stabilizer Agents in Combinations in Complex Spheroids
A high-throughput screen of multi-cell type tumor spheroids was designed to identify active combinations of DNA G-quadruplex stabilizer agents and targeted small molecules. Complex spheroids include a stromal component modeled by human endothelial cells (HUVEC) and fibroblasts modeled by human mesenchymal stem cells (MSCs). The concentration ranges selected for each drug and investigational agent were based upon clinically achievable concentrations if the clinical Cmax of the agent was known.
Compounds. The drugs and investigational agents: pidnarulex (CX-5461; NSC782164), APTO-253 (NSC789042), BRACO-19 (NSC847499), peposertib (NSC802822), ceralasertib (NSC780249), elimusertib (NSC800525), camonsertib (NSC841442), AZD-1390 (NSC803789), olaparib (NSC753686), talazoparib (NSC767125), ART-558 (NSC835418), sotorasib (NSC818433), MRTX-1133 (NSC836407), SN-38 (NSC673596), topotecan (NSC609699), etoposide (NSC141540), doxorubicin (NSC123127), gemcitabine (NSC613327), 5-fluorouracil (NSC19893), paclitaxel (NSC125973), vemurafenib (NSC761431), panobinostat (NSC761190), R-306465 (JNJ-16241199; NSC773264), adavosertib (NSC754352), TP-3654 (NSC805149), carboplatin (NSC241240), KSQ-4279 (NSC840948), and staurosporine (NSC755774) were obtained from the National Cancer Institute (NCI) Developmental Therapeutics Program Chemical Repository (34). The FDA-approved anticancer drug set is available from the NCI Developmental Therapeutics Program. […] The stock solutions were prepared in dimethyl sulfoxide (DMSO, Sigma-Aldrich, St. Louis, MO, cat. D2650) at 800-fold the tested concentration and stored at -70 degrees C prior to their use. All drugs and investigational agents were tested over a range starting from a high concentration at or near the clinical Cmax and decreasing in half-log increments. If the clinical Cmax for an agent had not been determined, the highest concentration tested was 10 microM.
2.3 Cell Culture. All cells were maintained in an incubator at 37 degrees C and 5% CO2 with 95% humidity. The PDC lines were cultured according to standard operating procedures established by the NCI PDMR. All PDCs were thawed and cultured in Matrigel-coated flasks prepared with a working solution of 1X Ham's F-12 nutrient mix, without supplementation (Invitrogen, cat. 11765054), 100 U/mL penicillin-streptomycin (Invitrogen, cat. 15140122), and 2.5% Matrigel (Corning Inc., cat. 354248) for the first three passages. The 857933-349-R-J2-PDC line was cultured in 6C/Colon 1B media, which includes advanced DMEM/F-12 (Thermo Fisher Scientific, cat. 12634028), 10 mM HEPES (Thermo Fisher Scientific, cat. 15630080), 1X GlutaMAX supplement (Thermo Fisher Scientific, cat. 35050061), 0.1 mg/mL primocin (InvivoGen, cat. ant-pm-2), 10% defined fetal bovine serum, heat inactivated (HyClone Laboratories Inc., cat. SH30070.03HI), 50% L-WRN conditioned media (ATCC, cat. CRL-3276), 1.25 mM N-Acetyl-L-cysteine (Sigma-Aldrich, cat. A9165), 10 mM nicotinamide (Sigma-Aldrich, cat. N0636), 1X B-27 supplement (Thermo Fisher Scientific, cat. 17504044), 1X N-2 supplement (Thermo Fisher Scientific, cat. 17502048), 10 microM Y-27632 dihydrochloride (Tocris Bioscience, cat. 1254), and 50 ng/mL human EGF recombinant protein (Thermo Fisher Scientific, cat. PHG0311). The 485176-168-R4-J1-PDC line was cultured in Panc media, which includes all 6C/Colon 1B media components plus 100 ng/mL human FGF-10 (Thermo Fisher Scientific, cat. 100-26), 500 nM SB-431542 (Selleckchem, cat. S1067), and gastrin (Tocris, cat. 3006).
[…]

[1] = curve of first compound, second compound 0.0316 µM
[2] = curve of first compound, second compound 0.1 µM
[3] = curve of first compound, second compound 0.316 µM
[4] = curve of first compound, second compound 1 µM
[5] = curve of first compound, second compound 3.16 µM
[6] = curve of first compound, second compound 10 µM
[7] = second compound 0.0316 µM, first compound 0.0316 µM
[8] = second compound 0.0316 µM, first compound 0.1 µM
[9] = second compound 0.0316 µM, first compound 0.316 µM
[10] = second compound 0.0316 µM, first compound 1 µM
[11] = second compound 0.0316 µM, first compound 3.16 µM
[12] = second compound 0.0316 µM, first compound 10 µM
[13] = second compound 0.1 µM, first compound 0.0316 µM
[14] = second compound 0.1 µM, first compound 0.1 µM
[15] = second compound 0.1 µM, first compound 0.316 µM
[16] = second compound 0.1 µM, first compound 1 µM
[17] = second compound 0.1 µM, first compound 3.16 µM
[18] = second compound 0.1 µM, first compound 10 µM
[19] = second compound 0.316 µM, first compound 0.0316 µM
[20] = second compound 0.316 µM, first compound 0.1 µM
[21] = second compound 0.316 µM, first compound 0.316 µM
[22] = second compound 0.316 µM, first compound 1 µM
[23] = second compound 0.316 µM, first compound 3.16 µM
[24] = second compound 0.316 µM, first compound 10 µM
[25] = second compound 1 µM, first compound 0.0316 µM
[26] = second compound 1 µM, first compound 0.1 µM
[27] = second compound 1 µM, first compound 0.316 µM
[28] = second compound 1 µM, first compound 1 µM
[29] = second compound 1 µM, first compound 3.16 µM
[30] = second compound 1 µM, first compound 10 µM
[31] = second compound 3.16 µM, first compound 0.0316 µM
[32] = second compound 3.16 µM, first compound 0.1 µM
[33] = second compound 3.16 µM, first compound 0.316 µM
[34] = second compound 3.16 µM, first compound 1 µM
[35] = second compound 3.16 µM, first compound 3.16 µM
[36] = second compound 3.16 µM, first compound 10 µM
[37] = second compound 10 µM, first compound 0.0316 µM
[38] = second compound 10 µM, first compound 0.1 µM
[39] = second compound 10 µM, first compound 0.316 µM
[40] = second compound 10 µM, first compound 1 µM
[41] = second compound 10 µM, first compound 3.16 µM
[42] = second compound 10 µM, first compound 10 µM
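Note: spheroids exposed to compounds for 7 days.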
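Throughout, for viability, T/C: 100% = DMSO vehicle control viability.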

COc1cccc2c1C(=O)c1c(O)c3c(c(O)c1C2=O)CC(O)(C(=O)CO)CC3OC1CC(N)C(O)C(C)O1 (stereo not given) + Cc1cnc(CNC(=O)c2c(=O)c3ccc(N4CCCN(C)CC4)nc3n3c2sc2ccccc23)cn1
IC50 [1]: 153 nM | IC50 [2]: 159 nM | IC50 [3]: 169 nM | IC50 [4]: 155 nM | IC50 [5]: 139 nM | IC50 [6]: 138 nM | viability, T/C [7]: 70.5% | viability, T/C [8]: 54.8% | viability, T/C [9]: 39% | viability, T/C [10]: 13.5% | viability, T/C [11]: 0.14% | viability, T/C [12]: 0.9% | viability, T/C [13]: 70.2% | viability, T/C [14]: 57.4% | viability, T/C [15]: 37.8% | viability, T/C [16]: 13.7% | viability, T/C [17]: 0.14% | viability, T/C [18]: 0.43% | viability, T/C [19]: 62.9% | viability, T/C [20]: 59.9% | viability, T/C [21]: 38.7% | viability, T/C [22]: 11.7% | viability, T/C [23]: 0.32% | viability, T/C [24]: 0.4% | viability, T/C [25]: 61.8% | viability, T/C [26]: 53.2% | viability, T/C [27]: 41.2% | viability, T/C [28]: 11.4% | viability, T/C [29]: 0.12% | viability, T/C [30]: 0.16% | viability, T/C [31]: 59.1% | viability, T/C [32]: 52.5% | viability, T/C [33]: 39.3% | viability, T/C [34]: 10.6% | viability, T/C [35]: 0.2% | viability, T/C [36]: 0.14% | viability, T/C [37]: 59.9% | viability, T/C [38]: 55.9% | viability, T/C [39]: 35.3% | viability, T/C [40]: 9.6% | viability, T/C [41]: 0.2% | viability, T/C [42]: 0.69%

C=CCn1c(=O)c2cnc(Nc3ccc(N4CCN(C)CC4)cc3)nc2n1-c1cccc(C(C)(C)O)n1
viability, T/C (compound 0.0316 µM): 101% and 105% (2×) | viability, T/C (compound 0.1 µM): 80.9% and 102% and 89.4% | viability, T/C (compound 0.316 µM): 76.6% and 92% and 76.5% | viability, T/C (compound 1 µM): 35.9% (2×) and 39.2% | viability, T/C (compound 3.16 µM): 18.3% and 21.7% and 21.2% | viability, T/C (compound 10 µM): 23.2% and 23.1% and 21.7% | IC50 (curve of compound): 660 nM and 789 nM and 669 nM

Cc1cccc(N(C)C(=O)C2C(O)CCN2c2nc(C)cc(C(F)(F)F)c2C#N)c1 (stereo not given)
viability, T/C (compound 0.0316 µM): 90.3% and 105% and 91.7% | viability, T/C (compound 0.1 µM): 101% and 88.7% and 99.2% | viability, T/C (compound 0.316 µM): 87.6% and 91.7% and 98.8% | viability, T/C (compound 1 µM): 104% and 95.4% and 100% | viability, T/C (compound 3.16 µM): 98.1% and 85.9% and 89.5% | viability, T/C (compound 10 µM): 84.6% and 77.5% and 71.8% | IC50 (curve of compound): > 10000 nM

COc1cccc2c1C(=O)c1c(O)c3c(c(O)c1C2=O)CC(O)(C(=O)CO)CC3OC1CC(N)C(O)C(C)O1 (stereo not given)
viability, T/C (compound 0.0316 µM): 90.7% and 94.5% and 84.5% | viability, T/C (compound 0.1 µM): 52% and 64.5% and 52.4% | viability, T/C (compound 0.316 µM): 39.5% and 50.2% and 35.5% | viability, T/C (compound 1 µM): 13.5% and 20% and 15% | viability, T/C (compound 3.16 µM): 0.2% and 0.32% and 0.18% | viability, T/C (compound 10 µM): 0.4% and 0.19% and 0.39% | IC50 (curve of compound): 138 nM and 241 nM and 128 nM

COc1cccc2c1C(=O)c1c(O)c3c(c(O)c1C2=O)CC(O)(C(=O)CO)CC3OC1CC(N)C(O)C(C)O1 (stereo not given) + CN(C)c1ccc(Nc2c3ccc(NC(=O)CCN4CCCC4)cc3nc3cc(NC(=O)CCN4CCCC4)ccc23)cc1
IC50 [1]: 261 nM | IC50 [2]: 263 nM | IC50 [3]: 229 nM | IC50 [4]: < 31.6 nM | IC50 [5]: < 31.6 nM | IC50 [6]: < 31.6 nM | viability, T/C [7]: 93.9% | viability, T/C [8]: 66.6% | viability, T/C [9]: 51.4% | viability, T/C [10]: 19.9% | viability, T/C [11]: 0.2% | viability, T/C [12]: 0.24% | viability, T/C [13]: 109% | viability, T/C [14]: 68.2% | viability, T/C [15]: 54.4% | viability, T/C [16]: 20.2% | viability, T/C [17]: 0.28% | viability, T/C [18]: 0.36% | viability, T/C [19]: 70.2% | viability, T/C [20]: 55.2% | viability, T/C [21]: 47.6% | viability, T/C [22]: 10.7% | viability, T/C [23]: 0.27% | viability, T/C [24]: 0.33% | viability, T/C [25]: 11.5% | viability, T/C [26]: 11.2% | viability, T/C [27]: 7.77% | viability, T/C [28]: 2.02% | viability, T/C [29]: 0.44% | viability, T/C [30]: 0.64% | viability, T/C [31]: 1.52% | viability, T/C [32]: 2.29% | viability, T/C [33]: 1.63% | viability, T/C [34]: 0.4% | viability, T/C [35]: 0.14% | viability, T/C [36]: 0.51% | viability, T/C [37]: 0.38% | viability, T/C [38]: 0.25% | viability, T/C [39]: 0.32% | viability, T/C [40]: 0.18% | viability, T/C [41]: 0.29% | viability, T/C [42]: 0.26%
